The target of series [1] is T1, Cytochrome P450 3A5 (Homo sapiens, UniProt P20815). Nature of the series: Activity of human recombinant CYP3A5 assessed as enzyme-mediated drug metabolism treated with 25 uM vorapaxar after 120 mins by LC-MS/MS analysis in presence of NADPH. The following applies: 2 h. Format: ADME.
Series [2] addresses T1, Cytochrome P450 3A5. Nature of the series: Activity of human recombinant CYP3A5 assessed as enzyme-mediated 2-hydroxyethyl (1R,3aR,4aR,6R,8aR,9S,9aS)-9-((E)-2-(5-(3-fluorophenyl)pyridin-2-yl)vinyl)-1-methyl-3-oxododecahydronaphtho[2,3-c]furan-6-ylcarbamate formation at 25 uM after 120 mins by LC-MS/MS analysis in presence of NADPH. Format: ADME. Conditions: 2 h.
The next series has as its target T2, Cytochrome P450 4F3 (Homo sapiens, UniProt Q08477).
T2 sequence (Q08477 whole entry): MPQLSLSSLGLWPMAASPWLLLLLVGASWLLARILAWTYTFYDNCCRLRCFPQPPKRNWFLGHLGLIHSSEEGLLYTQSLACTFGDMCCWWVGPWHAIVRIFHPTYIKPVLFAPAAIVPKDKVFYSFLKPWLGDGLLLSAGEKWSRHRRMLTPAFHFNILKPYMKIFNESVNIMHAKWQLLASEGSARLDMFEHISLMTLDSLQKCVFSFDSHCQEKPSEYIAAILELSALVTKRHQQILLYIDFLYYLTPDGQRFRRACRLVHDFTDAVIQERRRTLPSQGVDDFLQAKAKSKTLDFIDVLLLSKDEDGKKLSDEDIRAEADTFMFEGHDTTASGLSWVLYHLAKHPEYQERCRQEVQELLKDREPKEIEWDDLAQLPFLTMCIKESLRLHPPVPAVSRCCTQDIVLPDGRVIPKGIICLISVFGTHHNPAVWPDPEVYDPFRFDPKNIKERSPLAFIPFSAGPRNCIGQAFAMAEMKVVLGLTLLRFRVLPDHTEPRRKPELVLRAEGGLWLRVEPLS
Nature of the series: Activity of human recombinant CYP4F3A assessed as enzyme-mediated 2-hydroxyethyl (1R,3aR,4aR,6R,8aR,9S,9aS)-9-((E)-2-(5-(3-fluorophenyl)pyridin-2-yl)vinyl)-1-methyl-3-oxododecahydronaphtho[2,3-c]furan-6-ylcarbamate formation at 25 uM after 120 mins by LC-MS/MS analysis in presence of NADPH. Format: ADME. The following applies: 2 h.

The target of another series is Cytochrome P450 4F2 (Homo sapiens, UniProt P78329). Nature of the series: Activity of human recombinant CYP4F2 assessed as enzyme-mediated 2-hydroxyethyl (1R,3aR,4aR,6R,8aR,9S,9aS)-9-((E)-2-(5-(3-fluorophenyl)pyridin-2-yl)vinyl)-1-methyl-3-oxododecahydronaphtho[2,3-c]furan-6-ylcarbamate formation at 25 uM after 120 mins by LC-MS/MS analysis in presence of NADPH. Format: ADME. The following applies: 2 h.

For another series, the target named is Cytochrome P450 2D6 (Homo sapiens, UniProt P10635). Nature of the series: Activity of human recombinant CYP2D6 assessed as enzyme-mediated drug metabolism at 10 uM after 120 mins by LC-MS/MS analysis. Format: ADME. The following applies: 2 h.
The target of series [3] is T3, Cytochrome P450 2J2 (Homo sapiens, UniProt P51589).
T3 sequence (P51589 whole entry): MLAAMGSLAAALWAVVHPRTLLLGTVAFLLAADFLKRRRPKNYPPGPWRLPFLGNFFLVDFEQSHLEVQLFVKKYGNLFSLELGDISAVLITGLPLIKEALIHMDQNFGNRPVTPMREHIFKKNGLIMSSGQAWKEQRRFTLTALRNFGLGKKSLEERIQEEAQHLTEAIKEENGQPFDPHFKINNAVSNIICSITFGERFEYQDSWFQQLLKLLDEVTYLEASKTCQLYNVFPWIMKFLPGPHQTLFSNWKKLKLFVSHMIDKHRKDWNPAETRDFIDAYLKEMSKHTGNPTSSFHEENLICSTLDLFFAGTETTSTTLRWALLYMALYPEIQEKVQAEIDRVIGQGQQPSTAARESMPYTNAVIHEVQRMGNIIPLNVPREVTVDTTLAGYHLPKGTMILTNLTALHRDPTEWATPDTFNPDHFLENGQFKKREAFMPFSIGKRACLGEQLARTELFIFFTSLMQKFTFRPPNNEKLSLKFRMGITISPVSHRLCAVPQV
Nature of the series: Activity of human recombinant CYP2J2 assessed as enzyme-mediated 2-hydroxyethyl (1R,3aR,4aR,6R,8aR,9S,9aS)-9-((E)-2-(5-(3-fluorophenyl)pyridin-2-yl)vinyl)-1-methyl-3-oxododecahydronaphtho[2,3-c]furan-6-ylcarbamate formation at 25 uM after 120 mins by LC-MS/MS analysis in presence of NADPH. The class given is ADME. The following applies: 2 h.

The target of series [4] is T4, Cytochrome P450 3A4 (Homo sapiens, UniProt P08684). Description: Activity of human recombinant CYP3A4 assessed as enzyme-mediated ((4aR,6R)-9-{2-[(1R,4S)-5-((S)-3-Fluoro-phenyl)-pyridin-2-yl]-vinyl}-1-methyl-3-oxo-dodecahydro-naphtho[2,3-c]furan-6-yl)-carbamic acid(R)-2-hydroxy-ethyl ester formation at 10 uM after 120 mins by LC-MS/MS analysis in presence of astemizole. Format: ADME. Conditions: 2 h.

Series [5] in a line: Drug metabolism in insect microsomes at 10 uM after 120 mins by LC-MS/MS analysis in presence of NADPH. The class given is ADME, Microsome. The following applies: read-out: Compound recovery.
For series [6], the target named is T3, Cytochrome P450 2J2. Description: Drug metabolism assessed as human recombinant CYP2J2-mediated 2-hydroxyethyl (1R,3aR,4aR,6R,8aR,9S,9aS)-9-((E)-2-(5-(3-fluorophenyl)pyridin-2-yl)vinyl)-1-methyl-3-oxododecahydronaphtho[2,3-c]furan-6-ylcarbamate formation at 25 uM after 120 mins by LC-MS/MS analysis in presence of ketoconazole. Format: ADME. Conditions: recombinant enzyme, 2 h.

Series [7] deals with T4, Cytochrome P450 3A4. Nature of the series: Drug metabolism assessed as human recombinant CYP3A4-mediated 2-hydroxyethyl (1R,3aR,4aR,6R,8aR,9S,9aS)-9-((E)-2-(5-(3-fluorophenyl)pyridin-2-yl)vinyl)-1-methyl-3-oxododecahydronaphtho[2,3-c]furan-6-ylcarbamate formation at 25 uM after 120 mins by LC-MS/MS analysis in presence of ketoconazole. Conditions: recombinant enzyme, 2 h. The class given is ADME.

The test system of the next series is Liver microsome. Nature of the series: Drug metabolism in human liver microsomes assessed as (3R,3aS,4S,4aR,7R,8aR,9aR)-7-amino-4-((E)-2-(5-(3-fluorophenyl)pyridin-2-yl)vinyl)-3-methyldecahydronaphtho[2,3-c]furan-1(3H)-one formation at 10 to 25 uM after 120 mins by LC-MS/MS analysis in presence of quinidine. The class given is ADME. The following applies: 2 h. In general terms: Liver microsomes are a subcellular fraction often used to study metabolism.

Another series deals with CYP2C9 (Homo sapiens, UniProt P11712). Nature of the series: Activity of human recombinant CYP2C9 assessed as enzyme-mediated drug metabolism at 10 uM after 120 mins by LC-MS/MS analysis in presence of NADPH. Format: ADME. The following applies: read-out: Compound recovery.
In series [8] the target is T3, Cytochrome P450 2J2. Nature of the series: Drug metabolism assessed as human recombinant CYP2J2-mediated 2-hydroxyethyl (1R,3aR,4aR,6R,8aR,9S,9aS)-9-((E)-2-(5-(3-fluorophenyl)pyridin-2-yl)vinyl)-1-methyl-3-oxododecahydronaphtho[2,3-c]furan-6-ylcarbamate formation at 25 uM after 120 mins by LC-MS/MS analysis in presence of astemizole. The following applies: recombinant enzyme, 2 h. Format: ADME.

Series [9] in a line: Drug metabolism in human intestine microsomes assessed as 2-hydroxyethyl (1R,3aR,4aR,6R,8aR,9S,9aS)-9-((E)-2-(5-(3-fluorophenyl)pyridin-2-yl)vinyl)-1-methyl-3-oxododecahydronaphtho[2,3-c]furan-6-ylcarbamate formation at 25 uM after 120 mins by LC-MS/MS analysis in presence of NADPH. The class given is ADME. The following applies: 2 h.

The text below walks through data of ChEMBL document CHEMBL3526033, “Identification of human liver cytochrome P450 enzymes involved in the metabolism of SCH 530348 (Vorapaxar), a potent oral thrombin protease-activated receptor 1 antagonist” (Drug Metab Dispos, 2011).

T1 sequence (P20815 whole entry): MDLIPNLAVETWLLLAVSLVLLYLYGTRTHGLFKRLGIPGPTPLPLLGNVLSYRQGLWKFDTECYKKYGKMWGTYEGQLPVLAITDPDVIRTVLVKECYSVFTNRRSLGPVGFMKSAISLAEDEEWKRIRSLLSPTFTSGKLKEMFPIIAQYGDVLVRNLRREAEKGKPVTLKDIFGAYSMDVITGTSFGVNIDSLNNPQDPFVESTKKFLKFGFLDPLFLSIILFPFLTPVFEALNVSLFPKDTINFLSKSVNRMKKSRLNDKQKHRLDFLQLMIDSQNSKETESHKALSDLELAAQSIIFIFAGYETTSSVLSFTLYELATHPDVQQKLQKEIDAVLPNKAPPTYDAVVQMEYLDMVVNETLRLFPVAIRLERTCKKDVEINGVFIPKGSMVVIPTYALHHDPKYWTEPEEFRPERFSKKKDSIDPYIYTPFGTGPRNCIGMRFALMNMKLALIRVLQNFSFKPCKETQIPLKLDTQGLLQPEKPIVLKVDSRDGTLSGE
T4 sequence (P08684 whole entry): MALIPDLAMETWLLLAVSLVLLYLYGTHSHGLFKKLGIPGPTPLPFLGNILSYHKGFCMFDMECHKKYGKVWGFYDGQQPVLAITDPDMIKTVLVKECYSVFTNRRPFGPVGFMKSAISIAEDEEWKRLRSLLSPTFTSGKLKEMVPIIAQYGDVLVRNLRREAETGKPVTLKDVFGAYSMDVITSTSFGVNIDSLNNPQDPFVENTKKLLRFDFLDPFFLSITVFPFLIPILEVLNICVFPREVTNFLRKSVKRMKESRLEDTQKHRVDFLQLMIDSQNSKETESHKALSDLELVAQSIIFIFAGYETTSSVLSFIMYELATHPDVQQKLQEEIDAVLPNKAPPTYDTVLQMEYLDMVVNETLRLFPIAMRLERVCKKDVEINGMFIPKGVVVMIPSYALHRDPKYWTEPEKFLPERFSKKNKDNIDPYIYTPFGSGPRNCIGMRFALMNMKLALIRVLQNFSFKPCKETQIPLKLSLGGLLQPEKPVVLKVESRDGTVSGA
Cytochrome P450 2D6, sequence (P10635 whole entry): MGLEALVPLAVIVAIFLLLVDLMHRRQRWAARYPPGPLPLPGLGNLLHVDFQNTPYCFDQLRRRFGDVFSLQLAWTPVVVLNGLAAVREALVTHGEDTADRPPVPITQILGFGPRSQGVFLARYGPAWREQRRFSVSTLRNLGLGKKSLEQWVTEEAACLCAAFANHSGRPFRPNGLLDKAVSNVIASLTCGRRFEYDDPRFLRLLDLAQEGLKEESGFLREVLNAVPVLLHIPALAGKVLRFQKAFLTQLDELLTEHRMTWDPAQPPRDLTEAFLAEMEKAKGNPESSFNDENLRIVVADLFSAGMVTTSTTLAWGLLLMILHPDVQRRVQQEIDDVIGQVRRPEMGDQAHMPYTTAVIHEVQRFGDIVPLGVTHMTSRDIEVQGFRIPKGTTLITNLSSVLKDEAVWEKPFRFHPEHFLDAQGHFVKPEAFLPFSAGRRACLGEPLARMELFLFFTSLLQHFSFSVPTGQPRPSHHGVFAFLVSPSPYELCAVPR
CYP2C9, sequence (P11712 whole entry): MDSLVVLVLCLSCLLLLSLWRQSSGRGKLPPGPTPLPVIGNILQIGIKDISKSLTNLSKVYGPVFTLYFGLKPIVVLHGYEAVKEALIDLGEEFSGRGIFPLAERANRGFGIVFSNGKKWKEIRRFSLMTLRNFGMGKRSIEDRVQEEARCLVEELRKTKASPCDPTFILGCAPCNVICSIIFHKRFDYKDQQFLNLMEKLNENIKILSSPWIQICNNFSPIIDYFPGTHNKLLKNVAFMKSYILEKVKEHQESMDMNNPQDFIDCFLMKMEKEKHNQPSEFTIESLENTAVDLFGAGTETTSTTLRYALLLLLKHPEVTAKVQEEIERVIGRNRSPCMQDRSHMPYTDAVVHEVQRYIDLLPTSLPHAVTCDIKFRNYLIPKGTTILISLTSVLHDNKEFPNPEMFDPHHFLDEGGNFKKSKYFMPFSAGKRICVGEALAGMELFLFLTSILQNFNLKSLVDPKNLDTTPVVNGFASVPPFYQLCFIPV
Cytochrome P450 4F2, sequence (P78329 whole entry): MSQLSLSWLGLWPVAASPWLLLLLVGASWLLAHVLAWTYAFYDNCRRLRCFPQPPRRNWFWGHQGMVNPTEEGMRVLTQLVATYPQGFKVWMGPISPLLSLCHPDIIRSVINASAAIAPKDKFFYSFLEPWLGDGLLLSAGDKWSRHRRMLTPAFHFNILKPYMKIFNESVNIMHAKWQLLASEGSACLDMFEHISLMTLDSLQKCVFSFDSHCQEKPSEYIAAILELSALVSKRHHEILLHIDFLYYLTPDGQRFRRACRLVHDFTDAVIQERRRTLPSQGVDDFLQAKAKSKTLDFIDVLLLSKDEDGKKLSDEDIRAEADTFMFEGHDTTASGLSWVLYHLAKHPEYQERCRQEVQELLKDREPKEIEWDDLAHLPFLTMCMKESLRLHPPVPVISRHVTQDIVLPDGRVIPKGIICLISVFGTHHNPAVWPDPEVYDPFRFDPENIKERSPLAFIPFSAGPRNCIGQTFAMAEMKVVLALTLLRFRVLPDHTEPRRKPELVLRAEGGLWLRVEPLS

On to `C[C@H]1OC(=O)[C@@H]2C[C@@H]3C[C@H](NC(=O)OCCO)CC[C@H]3[C@H](/C=C/c3ccc(-c4cccc(F)c4)cn3)[C@H]12`, for which the Drug metabolism result at Cytochrome P450 3A5 [1] is on record as “metabolite_detected”.

With `CCOC(=O)N[C@@H]1CC[C@@H]2[C@@H](C1)C[C@H]1C(=O)O[C@H](C)[C@H]1[C@H]2/C=[14CH]/c1ccc(-c2cccc(F)c2)cn1`, the Drug metabolism entry on Cytochrome P450 3A5 [2] was “metabolite_detected”; at Cytochrome P450 4F3, “metabolite_detected”; on Cytochrome P450 4F2, “metabolite_detected”; at Cytochrome P450 2D6, “metabolite_not_detected”; at Cytochrome P450 2J2 [3], “metabolite_detected”.

In the case of `CCOC(=O)N[C@@H]1CC[C@@H]2[C@@H](C1)C[C@H]1C(=O)O[C@H](C)[C@H]1[C@H]2/C=C/c1ccc(-c2cccc(F)c2)cn1` [VORAPAXAR], at Cytochrome P450 3A4 [4], the “inhibition (INH)” value is 76%. Also, the remaining at 2 h, 10 µM in [5] is 98.7%; at CYP2C9 it was 98.8%. For the same molecule, the Drug metabolism entry on Cytochrome P450 2J2 [6] was “metabolite_not_detected”; on Cytochrome P450 3A4 [7] it was “metabolite_not_detected”; with Liver microsome, “metabolite_detected”; at Cytochrome P450 2J2 [8] it was “metabolite_not_detected”; in [9], “metabolite_detected”.
